Drawing on BindingDB's records for doi:10.1021/jm000022w (Cor Therapeutics, 2000), this text covers IC50 for 35 molecules.

pIC50: −log10 of the molar value. Starred links: 1 amine or outer side, 2 acyl side, 3 side chain; linkers in the order of their positions; H or OH if unused. Positions of bridges follow the written chain, without caps; N, C: chain ends. Non-standard residues stand in square brackets, D forms with d. Residues, ends and D or L forms follow the SMILES beside them. ξ: configuration not given here. Cys(O)(CH2CO) = O=C([C@H](C[S+]([O-])CC(=O)[*:3])N[*:1])[*:2]; NMeR = CN[C@@H](CCCNC(=N)N)C(=O)O; hArg = N=C(N)NCCCC[C@H](N)C(=O)O; 3Amb = NCc1cccc(C(=O)O)c1; ξR = N=C(N)NCCCC(N)C(=O)O; dAbu = CC[C@@H](N)C(=O)O; Mpa = O=C(O)CCS

The first experiment can be described thus: Inhibition of platelet aggregation.
As for `N=C(N)c1ccc(C(=O)Nc2cccc(C(=O)NCCC(=O)O)c2)cc1`, the pIC50 is 6.70.

`N=C(N)NCCC[C@@H]1NC(=O)[C@@H](Cc2ccc(O)cc2)NC(=O)C[S+]([O-])C[C@@H](C(=O)O)NC(=O)[C@H](CC(=O)O)NC(=O)CNC1=O` (stereo not given in full) [6-Carboxymethyl-12-(3-guanidino-propyl)-15-(4-hydroxy-benzyl)-1,5,8,11,14,17-hexaoxo-1lambda*4*-thia-4,7,10,13,16-pentaaza-cyclooctadecane-3-carboxylic acid (G4120)] ([dY]RGD[Cys(O)(CH2CO)]-OH; lactam N-5) gave a pIC50 of 6.82.

`CC(C)[C@H](NC(=O)[C@H](CC(=O)O)NC(=O)CCNC(=O)c1ccc(C(=N)N)cc1)C(=O)O` [2-{2-[3-(4-Carbamimidoyl-benzoylamino)-propionylamino]-3-carboxy-propionylamino}-3-methyl-butyric acid (Ro 43-5054)] showed a pIC50 of 7.52.

Molecule `CC(C)[C@H](NC(=O)[C@H](CC(=O)O)NC(=O)CNC(=O)Cc1ccc(C(=N)N)cc1)C(=O)O` gave a pIC50 of 6.52.

`CN(CC(=O)c1ccc(OCC(=O)O)c(OCC(=O)O)c1)C(=O)c1ccc(C(=N)N)cc1` [(4-{2-[(4-Carbamimidoyl-benzoyl)-methyl-amino]-acetyl}-2-carboxymethoxy-phenoxy)-acetic acid] showed a pIC50 of 7.15.

For the molecule `[H]/N=C(/N)c1ccc(C(=O)N[C@@H](Cc2ccc(O)cc2)C(=O)N2CCC(OCC(=O)O)CC2)cc1`, the pIC50 is 7.52.

The next experiment can be described thus: Inhibition of platelet aggregation. The source holds these as a separate data set.
Consider `CCOC(=O)CCN(c1ncc(-c2ccc(C(N)=NC(=O)OCC)cc2)s1)C1CCN(CC(=O)OCC)CC1` [3-[{5-[4-(Ethoxycarbonylamino-imino-methyl)-phenyl]-thiazol-2-yl}-(1-ethoxycarbonylmethyl-piperidin-4-yl)-amino]-propionic acid ethyl ester (SR121787)], for which the pIC50 was below 7.05.

In turn, `Cc1c(C(=O)NCCC(=O)O)s/c(=N\C(=O)c2ccc(C(=N)N3CCC4(CC3)OCCO4)cc2)n1C` [3-[(2-{4-[(1,4-Dioxa-8-aza-spiro[4.5]dec-8-yl)-imino-methyl]-benzoylimino}-3,4-dimethyl-2,3-dihydro-thiazole-5-carbonyl)-amino]-propionic acid (PSA0613)] had a pIC50 of 7.66.

A short description of the next experiment: Inhibition of platelet aggregation. The source holds these as a separate data set.
On to `COc1ccc(C[C@H](NC(=O)[C@H](CC(=O)O)NC(=O)CNC(=O)[C@@H](N)CCCNC(=N)N)C(N)=O)cc1` [SC-46749] (H-RGDY(Me)-NH2), for which the negative-log IC50 (pIC50) was 4.49.

For `CC(=O)NC(CCCNC(=N)N)C(=O)NCC(=O)N[C@@H](CC(=O)O)C(=O)N[C@H](C(N)=O)C(C)C` (stereo not given in full) [3-[2-(2-Acetylamino-5-guanidino-pentanoylamino)-acetylamino]-N-(1-carbamoyl-2-methyl-propyl)-succinamic acid] (Ac-[ξR]GDV-NH2), the pIC50 was 4.49.

A further experiment in a line: Inhibition of human platelet aggregation.
With `CC(C)CC(=O)N[C@@H](CCCCNC(=O)c1ccc(C(=N)N)cc1)CC(=O)O` [7-(4-Carbamimidoyl-benzoylamino)-3-(3-methyl-butyrylamino)-heptanoic acid (GPI 562)], the pIC50 is 7.82.

The next experiment is described as follows: Inhibition of human platelet aggregation. The source holds these as a separate data set.
For the molecule `CC[C@H]1NC(=O)c2cccc(c2)CNC(=O)[C@H](CC(=O)O)NC(=O)CNC(=O)[C@H](CCCN=C(N)N)N(C)C1=O` [DMP-728] (cyclo([NMeR]GD[3Amb][dAbu])), the pIC50 was 7.34.

The nature of a further experiment: Inhibition of human platelet aggregation. This is another data set of the same source.
`CCCCOC(=O)N[C@@H](CNC(=O)C[C@H]1CC(c2ccc(C(=N)N)cc2)=NO1)C(=O)OC` [2-Butoxycarbonylamino-3-{2-[3-(4-carbamimidoyl-phenyl)-4,5-dihydro-isoxazol-5-yl]-acetylamino}-propionic acid methyl ester(DMP 754(roxifiban))] showed a pIC50 of 7.22.

Take `CCOC(=O)CN1CCN(C[C@@H]2CN(c3ccc(C(N)=NC(=O)OC)cc3)C(=O)O2)CC1` [Gantofiban]: the pIC50 was 8.10.

The next experiment is described as follows: Inhibition of human gel filtered platelet aggregation induced by ADP.
In the case of `C[C@@]1(c2ccc(C(=N)N)cc2)NC(=O)N(CC(=O)NC(CC(=O)O)c2ccccc2)C1=O` (stereo not given in full) [3-{2-[4-(4-Carbamimidoyl-phenyl)-4-methyl-2,5-dioxo-imidazolidin-1-yl]-acetylamino}-3-phenyl-propionic acid(S1197)], the pIC50 was 7.70.

A further experiment can be described thus: In vitro inhibition of gel filtered platelet aggregation induced by ADP.
`CCCCS(=O)(=O)NC(CC#Cc1ccc2[nH]c(=O)n(CCC3CCNCC3)c(=O)c2c1)C(=O)O` (stereo not given) [2-(Butane-1-sulfonylamino)-5-[2,4-dioxo-3-(2-piperidin-4-yl-ethyl)-1,2,3,4-tetrahydro-quinazolin-6-yl]-pent-4-ynoic acid] had a pIC50 of 7.43.

`C#C[C@H](CC(=O)O)NC(=O)CN1CCc2ccc(N3CCNCC3)cc2C1=O` [L-767679]: the pIC50 was 7.92.

Regarding `CCCCS(=O)(=O)N[C@@H](CNC(=O)c1cc2n(n1)CCN(CCC1CCNCC1)C2=O)C(=O)O` [(S)-2-(Butane-1-sulfonylamino)-3-{[4-oxo-5-(2-piperidin-4-yl-ethyl)-4,5,6,7-tetrahydro-pyrazolo[1,5-a]pyrazine-2-carbonyl]-amino}-propionic acid], the pIC50 was 8.05.

The molecule `N=C(N)c1ccc(C(=O)Nc2ccc3c(c2)CCC(CC(=O)O)O3)cc1` (stereo not given) [[6-(4-Carbamimidoyl-benzoylamino)-chroman-2-yl]-acetic acid] showed a pIC50 of 6.72.

`CCCCS(=O)(=O)NC(CC#Cc1ccc2nc(C)n(CCC3CCNCC3)c(=O)c2c1)C(=O)O` (stereo not given) [2-(Butane-1-sulfonylamino)-5-[2-methyl-4-oxo-3-(2-piperidin-4-yl-ethyl)-3,4-dihydro-quinazolin-6-yl]-pent-4-ynoic acid]: the pIC50 is 7.37.

In the case of `Cc1ccc(S(=O)(=O)N[C@@H](CCC(=O)N2CCC3(CC2)C(=O)N(c2ccc(C(=N)N)cc2)C(=O)N3C)C(=O)O)cc1` [5-[3-(4-Carbamimidoyl-phenyl)-1-methyl-2,4-dioxo-1,3,8-triaza-spiro[4.5]dec-8-yl]-5-oxo-2-(toluene-4-sulfonylamino)-pentanoic acid], the pIC50 is 7.23.

`N=C(c1ccc(C(=O)Nc2ccc3c(c2)C[C@@H](CC(=O)O)CO3)cc1)N1CCOCC1` [{(S)-6-[4-(Imino-morpholin-4-yl-methyl)-benzoylamino]-chroman-3-yl}-acetic acid] gave a pIC50 of 7.46.

Turning to `[H]/N=C(/N)c1ccc(C2=NO[C@@H](CC(=O)NC[C@H](NC(=O)OCCCC)C(=O)O)C2)cc1`, the pIC50 was 7.22.

Molecule `Cc1noc(C)c1S(=O)(=O)N[C@@H](CNC(=O)C1CCC2(CC1)CCN(c1ccncc1)CC2)C(=O)O` [2-(3,5-Dimethyl-isoxazole-4-sulfonylamino)-3-[(3-pyridin-4-yl-3-aza-spiro[5.5]undecane-9-carbonyl)-amino]-propionic acid] showed a pIC50 of 7.36.

Turning to `Cc1ccc(S(=O)(=O)N[C@@H](CNC(=O)c2ccc3oc(-c4ccc(C(=N)N)cc4)nc3c2)C(=O)O)cc1` [(S)-3-{[2-(4-Carbamimidoyl-phenyl)-benzooxazole-5-carbonyl]-amino}-2-(toluene-4-sulfonylamino)-propionic acid], the pIC50 is 8.00.

In the case of `O=C(NC[C@H](NS(=O)(=O)c1ccccc1)C(=O)O)c1cc2cc(OCC3CCNCC3)ccc2[nH]1` [2-Benzenesulfonylamino-3-{[5-(piperidin-4-ylmethoxy)-1H-indole-2-carbonyl]-amino}-propionic acid(L-756568)], the negative-log IC50 (pIC50) is 7.89.

`N=C(N)c1ccc(C(=O)Nc2ccc3c(c2)CCC(CC(=O)O)C3=O)cc1` (stereo not given) [[6-(4-Carbamimidoyl-benzoylamino)-1-oxo-1,2,3,4-tetrahydro-naphthalen-2-yl]-acetic acid]: the pIC50 was 7.22.

Molecule `O=C(NC[C@H](NS(=O)(=O)c1ccccc1)C(=O)O)c1cc2c(s1)CCN(CCC1CCNCC1)C2=O` [(S)-2-Benzenesulfonylamino-3-{[4-oxo-5-(2-piperidin-4-yl-ethyl)-4,5,6,7-tetrahydro-thieno[3,2-c]pyridine-2-carbonyl]-amino}-propionic acid] gave a pIC50 of 8.10.

`Cc1noc(C)c1S(=O)(=O)N[C@@H](CCC(=O)N1CCC2(CC1)CCN(c1ccncc1)CC2)C(=O)O` [2-(3,5-Dimethyl-isoxazole-4-sulfonylamino)-5-oxo-5-(9-pyridin-4-yl-3,9-diaza-spiro[5.5]undec-3-yl)-pentanoic acid] showed a pIC50 of 7.68.

The next experiment can be described thus: Inhibition of ADP-induced platelet aggregation in human platelet rich plasma.
Take `CN(C(=O)c1ccc2c(c1)NC(CC(=O)O)C(=O)N(CCc1ccccc1)C2)c1ccc(C(=N)N)cc1` (stereo not given) [{8-[(4-Carbamimidoyl-phenyl)-methyl-carbamoyl]-3-oxo-4-phenethyl-2,3,4,5-tetrahydro-1H-benzo[e][1,4]diazepin-2-yl}-acetic acid(SB-208651)]: the pIC50 was 7.19.

`CN(C(=O)c1ccc2c(c1)CN(CCc1ccccc1)C(=O)C(CC(=O)O)N2)c1ccc(C(=N)N)cc1` (stereo not given) [{7-[(4-Carbamimidoyl-phenyl)-methyl-carbamoyl]-3-oxo-4-phenethyl-2,3,4,5-tetrahydro-1H-benzo[e][1,4]diazepin-2-yl}-acetic acid]: the pIC50 was 6.80.

Another experiment can be described thus: Inhibition of human platelet aggregation collected with sodium citrate as anticoagulant.
Molecule `N=C(N)NCCCC[C@@H]1NC(=O)CCSSC[C@@H](C(N)=O)NC(=O)[C@@H]2CCCN2C(=O)[C@H](Cc2c[nH]c3ccccc23)NC(=O)[C@H](CC(=O)O)NC(=O)CNC1=O` ([Mpa][hArg]GDWPC-NH2; disulfide 1-7) gave a pIC50 of 6.85.

The nature of a further experiment: Inhibition of […] and platelet aggregation in human platelet rich plasma.
Turning to `C[C@@H](COc1ccc(N2CCN(c3ccncc3)CC2)cc1)CC(=O)O` [3-Methyl-4-[4-(4-pyridin-4-yl-piperazin-1-yl)-phenoxy]-butyric acid (ZD 2486)], the pIC50 is 7.30.

The molecule `N=C(N)c1ccc(N2CCN(c3ccc(OCC(=O)O)cc3)CC2)cc1` [{4-[4-(4-Carbamimidoyl-phenyl)-piperazin-1-yl]-phenoxy}-acetic acid] showed a pIC50 of 7.70.

In the case of `[H]/N=C(/N)c1ccc(N2CCN(C3CCN(CC(=O)O)CC3)CC2)cc1` [{4-[4-(4-Carbamimidoyl-phenyl)-piperazin-1-yl]-piperidin-1-yl}-acetic acid (GR 144053)], the pIC50 was 7.23.
